Test results: patent US7138361B2, “Herbicidal heterocycles” (E. I. du Pont de Nemours and Company, priority 2000, dated 2006)

Tests used:
Test in all cases: Test B preemergence
Format in all cases: in vivo
[1] = test system: lambsquarters (Chenopodium album)
Procedure, shortened: (§1)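 Pre: seeded pots sprayed, chemical in non-phytotoxic solvent/surfactant mix. Post: plants 2–18 cm, 1–4 leaf, same formulation. Greenhouse 13–15 d; visual % control vs untreated, 0–100 scale.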

[2] = test system: crabgrass (Digitaria sanguinalis)
Procedure, shortened: as §1

[3] = test system: velvetleaf (Abutilon theophrasti)
Procedure, shortened: as §1

[4] = test system: morning glory (Ipomoea hederacea)
Procedure, shortened: as §1

[5] = test system: cocklebur (Xanthium strumarium)
Procedure, shortened: as §1

rice (Oryza saliva) = test system: rice (Oryza saliva)
Procedure, shortened: as §1

corn (Zea mays) = test system: corn (Zea mays)
Procedure, shortened: as §1

[6] = test system: pigweed (Amaranthus retroflexus)
Procedure, shortened: as §1

[7] = test system: Surinam grass (Brachiaria decumbens)
Procedure, shortened: as §1

[8] = test system: giant foxtail (Setaria faberii)
Procedure, shortened: as §1

[9] = Preemergence, Rate 500 g/ha, scale 0 to 100, 0 no effect, 100 complete control
[10] = preemergence, Rate 125 g/ha, scale of 0 to 100 where 0 is no effect and 100 is complete control, 13 to 15 days
[11] = preemergence, Rate 125 g/ha, scale 0 to 100, 0 no effect, 100 complete control

SMILES | Plant response rating, Lambsquarters [1, 9] | Plant response rating, Lambsquarters [1, 10] | Plant response rating, Crabgrass [2, 9] | Plant response rating, Crabgrass [2, 10] | Plant response rating, Velvetleaf [3, 9] | Plant response rating, Velvetleaf [3, 10] | Plant response rating, Morningglory [4, 9] | Plant response rating, Morningglory [4, 10] | Plant response rating, Cocklebur [5, 9] | Plant response rating, Cocklebur [5, 10] | Plant response rating, Rice (rice (Oryza saliva); [9]) | Plant response rating, Rice (rice (Oryza saliva); [10]) | Plant response rating, Corn (corn (Zea mays); [9]) | Plant response rating, Corn (corn (Zea mays); [10]) | Plant response rating, Pigweed [6, 9] | Plant response rating, Pigweed [6, 10] | Plant response rating, Surinam grass [7, 9] | Plant response rating, Surinam grass [7, 10] | Plant response rating, Foxtail, Giant [8, 9] | Plant response rating, Foxtail, Giant [8, 10] | further results
Cc1cc(C)nc(N2CCC(n3ccc(C(C)(C)C)n3)C2=O)c1 (centres unmarked) [Compound 138] | 100 | 100 | 100 | 100 | 0 | 0 | 100 | 90 | 100 | 0 | 100 | 0 | 20 | 0 | 100 | 100 | 100 | 70 | 100 | 80 | 
CCC(CC)c1ccn(C2CCN(c3ccc(Cl)c(OC)c3)C2=O)n1 (centres unmarked) [Compound 118] | 100 | 100 | 100 | 100 | 90 | 20 | 100 | 40 | 0 | 0 | 0 | 0 | 30 | 30 | 100 | 100 | 90 | 0 | 100 | 40 | 
CCC(CC)c1ccn(C2CCN(c3ccc(F)c(C(F)(F)F)c3)C2=O)n1 (centres unmarked) [Compound 144] | 100 | 100 | 100 | 100 | 0 | 0 | 0 | 0 | 0 | 0 | 0 | 0 | 20 | 0 | 100 | 100 | 70 | 0 | 100 | 100 | 
CCC(C)c1ccn(C2OCN(c3cccc(OC(F)F)c3)C2=O)n1 (centres unmarked) [Compound 134] | 100 | 100 | 100 | 100 | 0 | 0 | 0 | 0 | 0 | 0 | 100 | 100 | 90 | 20 | 100 | 100 | 100 | 90 | 100 | 100 | 
CCOc1cccc(N2CCC(n3ccc(C(C)(C)C)n3)C2=O)c1 (centres unmarked) [Compound 130] | 100 | 100 | 100 | 100 | 50 | 0 | 100 | 50 | 50 | 0 | 100 | 100 | 70 | 50 | 100 | 100 | 100 | 100 | 100 | 100 | 
CCC(C)c1ccn(C2CCN(c3ccc(F)c(C(F)(F)F)c3)C2=O)n1 (centres unmarked) [Compound 145] | 100 | 100 | 100 | 100 | 0 | 0 | 0 | 0 | 0 | 0 | 80 | 0 | 0 | 0 | 100 | 100 | 60 | 0 | 100 | 100 | 
CC(C)(C)c1ccn(C2OCN(c3cccc(OC(F)F)c3)C2=O)n1 (centres unmarked) [Compound 133] | 100 | 100 | 100 | 100 |  | 0 | 0 | 0 | 0 | 0 | 100 | 90 | 90 | 0 | 100 | 100 | 100 | 100 | 100 | 100 | 
CCCC(C)c1ccn(C2OCN(c3cccc(OC(F)F)c3)C2=O)n1 (centres unmarked) [Compound 132] | 100 | 100 | 100 | 100 | 30 | 0 | 0 | 0 | 30 | 0 | 50 | 0 | 0 | 0 | 100 | 70 | 100 | 80 | 100 | 100 | 
CC(C)(C)c1ccn(C2CCN(c3cccc(C(F)(F)F)c3)C2=S)n1 (centres unmarked) [Compound 22] | 100 |  | 100 |  | 0 |  | 0 |  | 0 |  | 0 |  | 0 |  | 100 |  | 50 |  | 100 |  | Plant response rating, Lambsquarters [1, 11]: 100; Plant response rating, Crabgrass [2, 11]: 0; Plant response rating, Velvetleaf [3, 11]: 0; Plant response rating, Morningglory [4, 11]: 0; Plant response rating, Cocklebur [5, 11]: 0; Plant response rating, Rice (rice (Oryza saliva); [11]): 0; Plant response rating, Corn (corn (Zea mays); [11]): 0; Plant response rating, Pigweed [6, 11]: 90; Plant response rating, Surinam grass [7, 11]: 30; Plant response rating, Foxtail, Giant [8, 11]: 30
